From patent publication US20260295053A1, “COMPOUNDS FOR DEGRADATION AND INHIBITION OF KRAS (G12D) PROTEIN” (Shenzhen Ionova Life Science Co., Ltd., priority 2023, published 2026) come the findings set out here.

The target in one assay is T1, KRAS (G12D) (Homo sapiens, UniProt P01116, G12D).
T1 construct: in-cell western with KRAS G12D antibody after 24 h
The experiment in a line: KRAS (G12D) cellular degradation assay in AsPC-1 cells. It is filed as cell-based. Particulars: 24 hours, antibody fluorescence (Odyssey CLX), DC50 half-maximal degradation concentration. Summed up:
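Read-outs were KRAS G12D immunofluorescence against β-actin after 24 h (DC50) and CellTiter Glo luminescence after 6 days (IC50). Compounds were titrated 1:3 from […] to 1.5 nM final on AsPC-1 cells at 37 °C, 5% CO2.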

A further assay has as its system AsPC-1 cells. The experiment in a line: AsPC-1 cell proliferation assay (CellTiter Glo). The format is cell-based. The settings on record: Homo sapiens, ASPC1, 144 h, 6 days. As to the method:
ASPC-1 and PK-59 cellular assays ASPC-1 (ATCC cat. CRL-1682) and PK-59 (Nanjing Cobioer, Cat. No. CBP61184) were used in KRAS cellular degradation, pERK inhibition and proliferation assays. The two cell lines were maintained following vendor's instructions. For monitoring KRAS (G12D) cellular degradation and pERK biomarker inhibition, cells were seeded into a 96-well plate with 22,000 and 16,000 cells/well for assays in ASPC-1 and PK-59, respectively. Cells were incubated at 37° C. with 5% CO2 and cell density was monitored until ^~90% confluency was reached. Compounds were serially diluted at a 1:3 ratio and dispensed into each well at final concentrations ranging from […] to 1.5 nM. After incubation for 24 hours, the culture media were removed and the cells were subjected to fixation, permeabilization and blocking (Intercept blocking buffer, Li-cor). For KRAS (G12D) degradation, the cells were treated with primary antibody (KRAS G12D antibody, Cell Signaling Technologies, Cat. No. CST14429) and for β-actin (β-actin mAb, Beyotime, Cat. No. AF-5001), and followed by secondary antibodies, Anti-rabbit IgG (H+L) (DyLight™ 800 4×PEG Conjugate) or IRDye® 680RD Goat anti-Mouse IgG. For pERK inhibition assay, cells were treated with primary antibodies for pERK (Phospho-p44/42 MAPK (Erk1/2) (Thr202/Tyr204) (D13.14.4E) XP® Rabbit mAb, Cell Signaling Technologies, Cat. No. CST-4370) and β-actin (β-actin mAb, Beyotime, Cat. No. AF-5001), and followed by secondary antibodies, Anti-rabbit IgG (H+L) (DyLight™ 800 4×PEG Conjugate) or IRDye® 680RD Goat anti-Mouse IgG. Fluorescence signals were read on Odyssey CLX instrument. For cell proliferation assays, cells were seeded into a 96-well plate at 3,500 and 800 cells/well for assays in ASPC-1 and PK-59, respectively. Cells were incubated at 37° C. with 5% CO2 for overnight. Compounds were serially diluted at a 1:3 ratio and dispensed into each well at final concentrations ranging from […] to 1.5 nM. After incubation for 6 days, cell viability reagent (CellTiter Glo, Promega, Cat. No. G7573) was added to each well and luminescence was recorded on Molecular Devices Spectramax iD3 instrument. IC50, half-maximal inhibitory concentration for pERK inhibition or cell proliferation, and DC50, half-maximal degradation concentration in KRAS (G12D) cellular degradation were determined by fitting the corresponding dose response curves using GraphPad Prism software.
Wherein “A” means the value <10 nM, “B” means 10 nM<the value <100 nM, “C” means 100 nM<the value <1000 nM, and “D” means the value >1000 nM, in which, the value means the value of DC50 or IC50. NT means not tested.
In general terms: ATP-based viability assays read luminescence as a measure of living cells.

The structures appear in SMILES notation.

A word on the DC50: it is the concentration giving 50% degradation. As a reminder, the IC50 is the concentration that inhibits the measured activity by half. Higher therefore signals lower potency.

T1 sequence (P01116 1-188 isoform P01116-2 G12D): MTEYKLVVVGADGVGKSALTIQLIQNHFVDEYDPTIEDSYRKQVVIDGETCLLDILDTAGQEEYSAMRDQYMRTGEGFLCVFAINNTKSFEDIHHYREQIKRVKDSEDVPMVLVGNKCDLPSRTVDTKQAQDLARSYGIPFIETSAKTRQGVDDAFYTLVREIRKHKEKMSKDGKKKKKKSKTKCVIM

For the molecule `CO[C@@H](C)COc1nc(N2CCCNCC2)c2cc(C3CC3)c(-c3c(C)c(F)cc4[nH]ncc34)c(OCc3ccc(-c4cn([C@H](C(=O)N5C[C@H](O)C[C@H]5C(=O)N[C@@H](CO)c5ccc(-c6scnc6C)cc5)C(C)C)nn4)cc3)c2n1` [Example 179, (2S,4R)-1-((2S)-2-(4-(4-(((6-cyclopropyl-4-(1,4-diazepan-1-yl)-7-(6-fluoro-5-methyl-1H-indazol-4-yl)-2-((S)-2-methoxypropoxy)quinazolin-8-yl)oxy)methyl)phenyl)-1H-1,2,3-triazol-1-yl)-3-methylbutanoyl)-4-hydroxy-N—((R)-2-hydroxy-1-(4-(4-methylthiazol-5-yl)phenyl)ethyl)pyrrolidine-2-carboxamide], the half-maximal degradation concentration (DC50) at KRAS (G12D) is less than 10 nM. This molecule also registered an IC50 in the assay on AsPC-1 cells of less than 10 nM.
Regarding `CCn1nccc1-c1ccc([C@H](CO)NC(=O)[C@@H]2C[C@@H](O)CN2C(=O)[C@H](C(C)C)n2cc(-c3ccc(COc4c(-c5c(C)c(F)cc6[nH]ncc56)c(C5CC5)cc5c(N6C[C@@H]7C[C@H]6CN7)nc(OC6CC7(CCOCC7)C6)nc45)cc3)nn2)cc1` [Example 105, (2S,4R)-1-((2S)-2-(4-(4-(((2-((7-oxaspiro[3.5]nonan-2-yl)oxy)-4-((1S,4S)-2,5-diazabicyclo[2.2.1]heptan-2-yl)-6-cyclopropyl-7-(6-fluoro-5-methyl-1H-indazol-4-yl)quinazolin-8-yl)oxy)methyl)phenyl)-1H-1,2,3-triazol-1-yl)-3-methylbutanoyl)-N—((R)-1-(4-(1-ethyl-1H-pyrazol-5-yl)phenyl)-2-hydroxyethyl)-4-hydroxypyrrolidine-2-carboxamide], the 50% degradation concentration (DC50) at KRAS (G12D) was less than 10 nM. In the assay on AsPC-1 cells, this molecule gave an IC50 of less than 10 nM.
`CCn1cc2c(C#C[C@H](CO)NC(=O)[C@@H]3C[C@@H](O)CN3C(=O)[C@H](C(C)C)n3cc(-c4ccc(COc5c(-c6c(C)c(F)cc7[nH]ncc67)c(C6CC6)cc6c(N7C[C@@H]8C[C@H]7CN8)nc(OC[C@H](C)OC)nc56)cc4)nn3)cccc2n1` [Example 162, (2S,4R)-1-((2S)-2-(4-(4-(((4-((1S,4S)-2,5-diazabicyclo[2.2.1]heptan-2-yl)-6-cyclopropyl-7-(6-fluoro-5-methyl-1H-indazol-4-yl)-2-((S)-2-methoxypropoxy)quinazolin-8-yl)oxy)methyl)phenyl)-1H-1,2,3-triazol-1-yl)-3-methylbutanoyl)-N—((R)-4-(2-ethyl-2H-indazol-4-yl)-1-hydroxybut-3-yn-2-yl)-4-hydroxypyrrolidine-2-carboxamide] had a half-maximal degradation concentration (DC50) on KRAS (G12D) of less than 10 nM. Further, in the assay on AsPC-1 cells, the IC50 was less than 10 nM.
On KRAS (G12D), `CCn1nccc1-c1ccc([C@@H](NC(=O)[C@@H]2C[C@@H](O)CN2C(=O)[C@H](C(C)C)n2cc(-c3ccc(COc4c(-c5c(C)c(F)cc6[nH]ncc56)c(C5CC5)cc5c(N6C[C@@H]7C[C@H]6CN7)nc(O[C@H]6C[C@H](OC)C6)nc45)cc3)nn2)[C@H](C)O)c(F)c1` [Example 198, (2S,4R)-1-((2S)-2-(4-(4-(((4-((1S,4S)-2,5-diazabicyclo[2.2.1]heptan-2-yl)-6-cyclopropyl-7-(6-fluoro-5-methyl-1H-indazol-4-yl)-2-((1r,3S)-3-methoxycyclobutoxy)quinazolin-8-yl)oxy)methyl)phenyl)-1H-1,2,3-triazol-1-yl)-3-methylbutanoyl)-N-((1R,2S)-1-(4-(1-ethyl-1H-pyrazol-5-yl)-2-fluorophenyl)-2-hydroxypropyl)-4-hydroxypyrrolidine-2-carboxamide] gave a half-maximal degradation concentration (DC50) of less than 10 nM. For the same molecule, in the assay with AsPC-1 cells, the IC50 was less than 10 nM.
In turn, `CCn1nccc1-c1ccc([C@@H](NC(=O)[C@@H]2C[C@@H](O)CN2C(=O)[C@H](C(C)C)n2cc(-c3ccc(COc4c(-c5c(C)c(F)cc6[nH]ncc56)c(C5CCC5)cc5c(N6C[C@@H]7C[C@H]6CN7)nc(O[C@H]6C[C@H](OC)C6)nc45)cc3)nn2)[C@H](C)O)cc1` [Example 136, (2S,4R)-1-((2S)-2-(4-(4-(((4-((1S,4S)-2,5-diazabicyclo[2.2.1]heptan-2-yl)-6-cyclobutyl-7-(6-fluoro-5-methyl-1H-indazol-4-yl)-2-((1r,3S)-3-methoxycyclobutoxy)quinazolin-8-yl)oxy)methyl)phenyl)-1H-1,2,3-triazol-1-yl)-3-methylbutanoyl)-N-((1R,2S)-1-(4-(1-ethyl-1H-pyrazol-5-yl)phenyl)-2-hydroxypropyl)-4-hydroxypyrrolidine-2-carboxamide] came in with a 50% degradation concentration (DC50) at KRAS (G12D) of less than 10 nM. In the assay with AsPC-1 cells, this molecule registered a concentration for half-maximal inhibition (IC50) of less than 10 nM.
As for `CCn1nccc1-c1ccc([C@H](CO)NC(=O)[C@@H]2C[C@@H](O)CN2C(=O)[C@H](C(C)C)n2cc(-c3ccc(COc4c(-c5c(C)c(F)c(F)c6[nH]ncc56)c(C5CC5)cc5c(N6C[C@@H]7C[C@H]6CN7)nc(OC[C@H](C)OC)nc45)cc3)nn2)cc1` [Example 57, (2S,4R)-1-((2S)-2-(4-(4-(((4-((1S,4S)-2,5-diazabicyclo[2.2.1]heptan-2-yl)-6-cyclopropyl-7-(6,7-difluoro-5-methyl-1H-indazol-4-yl)-2-((S)-2-methoxypropoxy)quinazolin-8-yl)oxy)methyl)phenyl)-1H-1,2,3-triazol-1-yl)-3-methylbutanoyl)-N—((R)-1-(4-(1-ethyl-1H-pyrazol-5-yl)phenyl)-2-hydroxyethyl)-4-hydroxypyrrolidine-2-carboxamide], the DC50 on KRAS (G12D) was less than 10 nM. The IC50 with AsPC-1 cells was less than 10 nM.
`CCn1nccc1-c1ccc([C@H](CO)NC(=O)[C@@H]2C[C@@H](O)CN2C(=O)[C@H](C(C)C)n2cc(-c3ccc(COc4c(-c5c(C)c(F)cc6[nH]ncc56)c(C5CC5)cc5c(N(C)C[C@H]6CCNC6)nc(OC[C@H](C)OC)nc45)cc3)nn2)cc1` [Example 206, (2S,4R)-1-((2S)-2-(4-(4-(((6-cyclopropyl-7-(6-fluoro-5-methyl-1H-indazol-4-yl)-2-((S)-2-methoxypropoxy)-4-(methyl(((S)-pyrrolidin-3-yl)methyl)amino)quinazolin-8-yl)oxy)methyl)phenyl)-1H-1,2,3-triazol-1-yl)-3-methylbutanoyl)-N—((R)-1-(4-(1-ethyl-1H-pyrazol-5-yl)phenyl)-2-hydroxyethyl)-4-hydroxypyrrolidine-2-carboxamide]: the DC50 on KRAS (G12D) was less than 10 nM. Moreover, the IC50 in the assay with AsPC-1 cells is less than 10 nM.
On to `CCn1nccc1-c1ccc([C@H](CO)NC(=O)[C@@H]2C[C@@H](O)CN2C(=O)[C@H](C(C)C)n2cc(-c3ccc(COc4c(-c5c(C)c(F)cc6[nH]ncc56)c(C5CC5)cc5c(N6CCNCC[C@H]6C)nc(OC[C@H](C)OC)nc45)cc3)nn2)cc1` [Example 154, (2S,4R)-1-((2S)-2-(4-(4-(((6-cyclopropyl-7-(6-fluoro-5-methyl-1H-indazol-4-yl)-2-((S)-2-methoxypropoxy)-4-((R)-7-methyl-1,4-diazepan-1-yl)quinazolin-8-yl)oxy)methyl)phenyl)-1H-1,2,3-triazol-1-yl)-3-methylbutanoyl)-N—((R)-1-(4-(1-ethyl-1H-pyrazol-5-yl)phenyl)-2-hydroxyethyl)-4-hydroxypyrrolidine-2-carboxamide], for which the DC50 at KRAS (G12D) is less than 10 nM. In the assay on AsPC-1 cells, this molecule displayed an IC50 of less than 10 nM.
At KRAS (G12D), `CCn1nccc1-c1ccc([C@@H](NC(=O)[C@@H]2C[C@@H](O)CN2C(=O)[C@H](C(C)C)n2cc(-c3ccc(COc4c(-c5c(C)c(F)cc6[nH]ncc56)c(C5CC5)cc5c(N(C)[C@@H]6CCNC6)nc(OC[C@H](C)OC)nc45)cc3)nn2)[C@H](C)O)c2c1CC2` [Example 186, (2S,4R)-1-((2S)-2-(4-(4-(((6-cyclopropyl-7-(6-fluoro-5-methyl-1H-indazol-4-yl)-2-((S)-2-methoxypropoxy)-4-(methyl((R)-pyrrolidin-3-yl)amino)quinazolin-8-yl)oxy)methyl)phenyl)-1H-1,2,3-triazol-1-yl)-3-methylbutanoyl)-N-((1R,2S)-1-(5-(1-ethyl-1H-pyrazol-5-yl)bicyclo[4.2.0]octa-1(6),2,4-trien-2-yl)-2-hydroxypropyl)-4-hydroxypyrrolidine-2-carboxamide] showed a DC50 of less than 10 nM. Moreover, the IC50 in the assay on AsPC-1 cells is less than 10 nM.
